Data from US5202314A, “10-thioethyl-steroids” (Roussel Uclaf, priority 1991, dated 1993).

Molecular target: T1, aromatase (Homo sapiens, UniProt P11511)
T1 construct: The supernatant was then subjected to an ultracentrifugation stage (90 minutes, 105,000 g) to obtain the microsomal regulus; from tissue; host or cells: human placenta, microsomal fraction
T1 sequence (P11511 1-503): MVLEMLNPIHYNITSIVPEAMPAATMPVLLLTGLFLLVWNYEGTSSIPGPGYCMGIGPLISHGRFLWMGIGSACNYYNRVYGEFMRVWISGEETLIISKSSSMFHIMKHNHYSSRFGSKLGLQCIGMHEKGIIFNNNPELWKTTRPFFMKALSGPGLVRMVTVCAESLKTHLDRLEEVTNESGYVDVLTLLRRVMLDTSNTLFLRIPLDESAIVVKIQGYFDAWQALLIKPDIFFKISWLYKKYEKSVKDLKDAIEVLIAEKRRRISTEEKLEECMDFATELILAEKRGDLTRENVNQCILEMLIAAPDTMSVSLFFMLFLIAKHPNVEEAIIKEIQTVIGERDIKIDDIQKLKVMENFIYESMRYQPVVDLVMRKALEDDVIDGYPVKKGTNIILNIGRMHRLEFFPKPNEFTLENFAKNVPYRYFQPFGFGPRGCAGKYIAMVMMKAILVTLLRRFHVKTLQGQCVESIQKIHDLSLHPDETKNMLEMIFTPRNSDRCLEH
Test: Inhibition of aromatase in human placental microsomes (tritiated water release from 1β-2β-3H-Androstenedione)
Assay type: biochemical
Conditions: 25 micrograms of proteins per test, substrate Androstenedione 500 nM, NADPH, 37° C., 10 minutes, read-out: IC50 (concentration of inhibitor necessary to decrease by 50% the enzymatic activity)
Description: Inhibition dependent on the concentration (measurement of IC50 =concentration of inhibitor necessary to reduce the enzymatic activity by 50%). Human placentas were used which were washed one hour at most after birth, perfused with physiological serum (5 liters) via the umbilical vein and then deep-frozen at -40° C.
(1) Obtaining the placental microsomes
The placentas were thawed at 4° C. and then homogenized (1:3) in a phosphate buffer 10 mM, pH=7.0; containing 100 millimoles of potassium chloride (KCl), 10 millimoles of dithiothreitol (DTT), 10 millimoles of ethylenediaminetetraacetic acid (EDTA), 40 millimoles of nicotinamide and 250 millimoles of sucrose. […]
The supernatant was then subjected to an ultracentrifugation stage (90 minutes, 105,000 g) to obtain the microsomal regulus. […] The protein concentration of the microsomal suspension was determined by the BRADFORD method BRADFORD M., Anal. Biochem., Vol. 72, (1976), p. […]
After centrifugation, 100 microliters of supernatant were taken from each tube and counted in the presence of a scintillating liquid. […] The inhibition obtained for each concentration of each inhibitor product of the invention was calculated as a percentage of the controls (arbitrary 100% , obtained in absence of any inhibitor). […]

CSCC[C@]12CCC(=O)C=C1[C@H](O)C[C@H]1[C@@H]3CCC(=O)[C@@]3(C)C[C@H]3O[C@]312 [Example 2, 9α, 11α-epoxy-10β-[2-methylthio-ethyl]-Δ^4-estrene-6β-ol-3,17-dione]
IC50: 180 nM
